These are literature values, as cited in patent publication US20160120797A1, “ANTI-ACNE COMPOSITION AND METHODS OF USE THEREOF” (priority 2014, published 2016).

On to `O=C(O)Cc1ccccc1Nc1c(Cl)cccc1Cl` [Diclofenac sodium, 2-(2-(2,6-dichlorophenylamino)phenyl)acetic acid], for which the anti-bacterial activity result in the data set on L. monocytogenes and in the data set with E. Coli was “anti-bacterial activity” each time.
